Experimental data taken from PubChem BioAssay AID1159562 (GlaxoSmithKline (GSK), 2015).
Active and inactive are the calls of the source. How the calls were made is not given here.

Tested on: Trypanosoma brucei growth inhibition, luminescence
Experiment: Trypanosoma brucei growth inhibition, luminescence (AID 1159562);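 further: parasites grew with compound for 24 h before the luminescence read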

Row | Structure (SMILES) | IC50
1 | N#CN1CC[C@@H](NC(=O)Nc2ccccc2Oc2ccccc2)C1 | 7900 nM
2 | NCc1ccc2c(Cl)cc(Cl)c(O)c2n1 | 200 nM
3 | Cn1nc(-c2ccc(NC(=O)Cc3ccccc3Cl)cc2)c2c(N)ncnc21 | 250 nM
4 | Nc1nc(-c2ccccc2)cc(-c2nc3ncccc3[nH]2)n1 | 16000 nM
5 | CC(=O)Nc1cccc(Nc2ncnc3nc[nH]c23)c1 | 400 nM
6 | Cc1ccc2onc(Nc3ccnc(Nc4cccc(S(C)(=O)=O)c4)n3)c2c1 | 7900 nM
7 | Cc1ccc(NC(C)C(=O)Nc2ccc(C#N)cc2)cc1S(=O)(=O)N1CCCCC1 (configuration not stated) | 10000 nM
8 | CC(C(=O)Nc1ccccc1F)N(C)CC(=O)Nc1cccc2ccccc12 (configuration not stated) | > 40000 nM (inactive)
9 | NS(=O)(=O)c1ccc(Nc2nccc(-c3cnn4ncccc34)n2)cc1 | 160 nM
10 | COc1ccc2ncc(F)c(NC(=O)C3(O)CCC(NCc4ccc5c(c4)OCCO5)CC3)c2n1 (configuration not stated) | 1600 nM
11 | CN(Cc1ccc(C(N)=O)cc1)C(c1ccc(F)cc1)c1cccnc1 (configuration not stated) | > 40000 nM (inactive)
12 | CCOc1ccccc1C(=O)Nc1nnc(-c2ccc3c(c2)OCO3)s1 | > 40000 nM (inactive)
13 | CCN(CC)S(=O)(=O)c1ccc(OC)c(NC(=O)c2ccc([N+](=O)[O-])s2)c1 | 630 nM
14 | CC(CCc1ccccc1)NC(=O)CN(Cc1ccccn1)Cc1ccccn1 (configuration not stated) | 5000 nM
15 | Fc1ccc(Nc2nc(-c3ccccn3)cs2)cc1 | 25000 nM
16 | Cc1cc(NC(=O)C2CCCCC2)n(-c2nc3c(c(=O)[nH]2)CCC3)n1 | 160 nM
17 | Cc1ccc2c(c1)SC(C(=O)Nc1n[nH]c(-c3ccccn3)n1)C2 (configuration not stated) | > 40000 nM (inactive)
18 | CNc1nc(C)nc(N2CCc3cc(C(=O)NCc4ccc(-c5ccn[nH]5)cc4Cl)ccc32)n1 | 10000 nM
19 | CNC(=O)C1Cc2ccccc2N1C(=O)Cc1ccc(F)cc1 (configuration not stated) | 250 nM
20 | Cc1ccccc1OCC(=O)N1CCCN(c2cccnn2)CC1 | > 40000 nM (inactive)
21 | CCc1cccc(CC)c1-n1c(SCC(=O)N2CC(=O)Nc3ccccc32)nnc1-c1cccnc1 | 1000 nM
22 | O=C(Cc1ccccc1)Nc1[nH]nc2sc(C(=O)NC3CCCC3)cc12 | 320 nM

Row | Structure (SMILES) | IC50
23 | CN1C(=O)c2ccccc2Sc2ccc(NC(=O)NCc3ccco3)cc21 | 500 nM
24 | CN(Cc1nnnn1C1CCN(Cc2ccc(-n3ccnc3)cc2)CC1)c1ccc(F)cc1F | > 40000 nM (inactive)
25 | COc1ccccc1C1CC(c2ccc(NS(C)(=O)=O)cc2)=NN1C(=O)c1cccs1 (configuration not stated) | 20000 nM
26 | O=C(Nc1nc2cc(Cl)ccc2o1)c1cccc(Cl)c1 | 790 nM
27 | O=C(NC1C(=O)N(c2ccccc2)C1c1cccnc1)c1ccc(Cl)s1 (configuration not stated) | > 40000 nM (inactive)
28 | O=C(NC(CO)c1ccc(F)cc1)c1ccc(-c2c[nH]c3ncccc23)s1 (configuration not stated) | 790 nM
29 | OCCCNc1nc(Nc2ccncc2)nc2ccccc12 | > 40000 nM (inactive)
30 | CC(C(=O)Nc1ccc(Br)cc1)N1CCN(c2ccc([N+](=O)[O-])cc2)CC1 (configuration not stated) | > 40000 nM (inactive)
31 | CC(c1cc(Cl)cc(Cl)c1)N(C)c1ncc2c(N)nc(N)nc2n1 (configuration not stated) | 32000 nM
32 | CC(C)CC(=O)Nc1cc(C2CC2)nn1-c1nc2c(c(=O)[nH]1)CCCC2 | 200 nM
33 | COCc1cc(Nc2ccc(Cl)cc2)nc(-c2ccccn2)n1 | > 40000 nM (inactive)
34 | COCCn1c(-c2ccccc2)cnc1NCc1ccccc1OC | 16000 nM
35 | Cc1cc(N(C)C)nc(Nc2ccccc2C)n1 | > 40000 nM (inactive)
36 | Cn1nccc1NC(=O)Cn1ccc(-c2ccncc2)n1 | 630 nM
37 | O=C(N1CCc2ccccc2CC1)C1(C(=O)N2CCC(n3c(=O)[nH]c4ncccc43)CC2)CC1 | > 40000 nM (inactive)
38 | CN(C)S(=O)(=O)c1ccc(-c2cnc(N)c(-c3nc4ccc(F)cc4[nH]3)c2)cc1 | 1000 nM
39 | CCCCN(C(=O)c1ccc(NC(=O)C(C)C)cc1)c1ccccc1 | > 40000 nM (inactive)
40 | Cc1nc2c(-c3ncn[nH]3)cc(NC(=O)Cc3ccccc3)cn2c1C | 10000 nM
41 | NC(N)=Nc1nc(-c2ccc(NC(N)=NCCN3CCCC3)cc2)cs1 | 100 nM
42 | O=C(NCC1CCCCN1C(=O)c1cccc2ccccc12)c1ccccc1 (configuration not stated) | 400 nM
43 | CC(=O)Nc1ccc(-c2ccnc(Nc3cccc(C#N)c3)n2)cc1 | 790 nM
44 | O=C(NCCCn1cnc2ccccc21)c1ccc(NC(=O)c2ccco2)cc1 | 250 nM

Row | Structure (SMILES) | IC50
45 | CCC(=O)Nc1ccccc1C(=O)Nc1ccccn1 | 400 nM
46 | Cn1cncc1CN1CCC2(CC1)COC(Cc1ccccc1)C2 (configuration not stated) | > 40000 nM (inactive)
47 | O=C(c1ccc(Cl)cc1)c1ccc(OC(=O)N2CCOCC2)cc1 | > 40000 nM (inactive)
48 | Cc1ccnc(NS(=O)(=O)c2ccc(NC(=O)c3ccc([N+](=O)[O-])s3)cc2)n1 | 400 nM
49 | c1ccc(Nc2nc3ccccc3[nH]2)nc1 | 25000 nM
50 | CCCCCNC(=O)c1c[nH]c2ccc(S(=O)(=O)N(C)c3ccc(OCC)cc3)cc2c1=O | 250 nM
51 | Cc1nc2c(-c3n[nH]c(-c4ccccc4N)n3)cccn2c1C | 2500 nM
52 | O=C(CSc1ccc(-c2ccccn2)nn1)Nc1ccc(Cl)cc1 | > 40000 nM (inactive)
53 | c1ccc(CNc2cccc3ccncc23)cc1 | > 40000 nM (inactive)
54 | CC(C)(C)CC(=O)NCCc1csc(-c2ccc(F)cc2)n1 | 500 nM
55 | CCCCn1nnnc1CSc1nc(C)cc(C)c1C#N | > 40000 nM (inactive)
56 | COc1ccccc1-c1c(C)[nH]c2nc(N)nc(C)c12 | > 40000 nM (inactive)
57 | Cc1ccccc1CNC(=O)CN(Cc1ccccn1)Cc1ccccn1 | 20000 nM
58 | COc1ccc(NS(=O)(=O)c2cccc(NC(=O)c3cc(F)cc(F)c3)c2)cc1 | 1000 nM
59 | CC(C)(C)Nc1nc(-c2ccccn2)nc2ccccc12 | 6300 nM
60 | CCCCc1cc(Nc2cc(C3CCC3)[nH]n2)nc(N2CCC2C(N)=O)n1 (configuration not stated) | 160 nM
61 | Cc1cc2ncn(-c3ccc([N+](=O)[O-])cc3C#N)c2cc1C | > 40000 nM (inactive)
62 | COc1ccc2nccc([C@H](O)CN3CC[C@H](NC(=O)c4ccc(Br)cc4)[C@@H](O)C3)c2n1 | 500 nM
63 | COc1ccc(C2CC(c3ccccc3Cl)=NN2C(=O)CNC(=O)C2CCCC2)cc1 (configuration not stated) | 790 nM
64 | N#Cc1cccc(Nc2nccc(N3CCC(NS(=O)(=O)c4cccc(C#N)c4)CC3)n2)c1 | 6300 nM
65 | O=C(Cn1cnc2c(-c3ccccc3)csc2c1=O)N1CCCCC1 | 1000 nM
66 | O=c1cc(NCCCNCc2c[nH]c3ccc(Br)cc23)[nH]c2ccccc12 | 790 nM

Row | Structure (SMILES) | IC50
67 | COc1ncc(-c2ccc3ncnc(N4CCOCC4)c3c2)cc1NS(C)(=O)=O | 500 nM
68 | Cc1nn2c(NCCCO)c3c(nc2c1-c1cccs1)CCC3 | 400 nM
69 | O=C(Nc1nc(-c2ccccn2)cs1)N1C[C@H]2C[C@@]2(c2ccccc2)C1 | 630 nM
70 | CCN(Cc1ccncc1)Cc1ccc(NC(=O)c2cc(-c3ccc(F)cc3)n[nH]2)cc1 | > 40000 nM (inactive)
71 | O=C(CSc1nnc2ccc(-c3ccc(F)cc3)nn12)N1CCCCC1 | 500 nM
72 | CCOc1cnn(C)c(=O)c1Nc1ccc(C(=O)NCc2ccc(F)cc2)cc1 | > 40000 nM (inactive)
73 | CC(C)COC(=O)Nc1ccc(N2CCC(CNS(=O)(=O)c3ccccc3)CC2)c(F)c1 | 20000 nM
74 | FC(F)(F)c1cc(C2CCCN(Cc3c[nH]c4ccccc34)C2)nc2ncnn12 (configuration not stated) | > 40000 nM (inactive)
75 | Cc1ccc(C)c(CN2C(=O)NC3(CCc4ccccc43)C2=O)c1 (configuration not stated) | 1000 nM
76 | Cc1[nH]n2c(=O)c3c(nc2c1-c1ccc(F)cc1)CCCC3 | 630 nM
77 | O=C(Nc1ccccc1)Nc1nc(-c2ccccn2)cs1 | 1000 nM
78 | CS(=O)(=O)c1ccc(CC(=O)Nc2nc(-c3ccc(Cl)s3)cs2)cc1 | > 40000 nM (inactive)
79 | N#Cc1cccc(CN2CCC(N(Cc3cccnc3)C(=O)c3cc(F)c(F)cc3F)CC2)c1 | > 40000 nM (inactive)
80 | COc1ccc(-c2cc(C)no2)cc1S(=O)(=O)Nc1ccc(C)c(C)c1 | 20000 nM
81 | C=CCn1nc([N+](=O)[O-])nc1Oc1ccc(Cl)cc1Cl | > 40000 nM (inactive)
82 | COc1ccc2nc(N(Cc3cccnc3)C(=O)C3CCC3)sc2c1 | 40000 nM
83 | COc1ccc2nccc(NC(=O)C3(OC)CCN(CC(O)c4ccc5c(c4)OCCO5)CC3)c2n1 (configuration not stated) | 500 nM
84 | CC(=O)Nc1ccc(-c2csc(NC(=O)c3ccc([N+](=O)[O-])s3)n2)cc1 | 160 nM
85 | N#Cc1nc(C=Cc2ccccc2)oc1NCc1cccnc1 | 32000 nM
86 | COc1cccc(C(=O)[C@H]2C[C@@H]2CN(Cc2cccnc2)Cc2cccnc2)c1 | > 40000 nM (inactive)
87 | CC1CCCCN1C(=O)NCCc1coc(-c2ccc(F)cc2)n1 (configuration not stated) | 160 nM
88 | O=C(c1cnn(-c2ccccc2)n1)N1CCCC(n2ccnc2)C1 (configuration not stated) | 32000 nM

Row | Structure (SMILES) | IC50
89 | O=c1ccc2ccc(F)c3c2n1C[C@H]3CN1CCN(CC(O)c2cc3c(cn2)OCS3)CC1 (some centres not stated) | 400 nM
90 | Cc1cc(C)nc(N2CCC(N(Cc3cccnc3)C(=O)c3cccc(C#N)c3)CC2)n1 | > 40000 nM (inactive)
91 | CC(=O)Nc1ccc(-c2noc(CC3CCCN(Cc4cccc(F)c4C)C3)n2)cc1 (configuration not stated) | 25000 nM
92 | COc1cccc(C(=O)[C@H]2C[C@@H]2CN(Cc2ccccn2)Cc2ccccn2)c1 | 20000 nM
93 | c1ccc2c(CCOc3nccnc3-c3ccncc3)c[nH]c2c1 | 40000 nM
94 | CNc1nc(C)nc(N2CCc3cc(C(=O)NCc4ccc(-c5nccn5C)cc4Cl)ccc32)n1 | 20000 nM
95 | COc1ccc2c(Cl)c(C(=O)N3CCC3)sc2c1Cl | > 40000 nM (inactive)
96 | CS(=O)(=O)NC1CCC(Oc2cc3cnccc3cc2-c2ccsc2)CC1 (configuration not stated) | > 40000 nM (inactive)
97 | CCc1cccc(CC)c1-n1c(SCC(=O)NC(=O)NCc2ccco2)nnc1-c1cccnc1 | 790 nM
98 | Fc1ccc(OC2CC(NCc3cccc4cn[nH]c34)C2)cc1C(F)(F)F (configuration not stated) | 10000 nM
99 | Cc1nn(-c2nc(N)nc(-c3ccccn3)n2)c(N)c1-c1ccccc1 | 6300 nM
100 | Nc1cc(-c2ccc3ncnc(N4CCOCC4)c3c2)cnc1N | 160 nM
101 | N#Cc1ccccc1S(=O)(=O)N1CCN(C(=O)CNC(=O)c2ccc3c(c2)OCO3)CC1 | > 40000 nM (inactive)
102 | CNS(=O)(=O)c1ccccc1Nc1nc(Nc2ccnn2C)ncc1Cl | 100 nM
103 | CNc1cncc(C2CCCN2C(=O)Cc2ccc3ccccc3c2)n1 (configuration not stated) | > 40000 nM (inactive)
104 | COc1ccc(OC)c2c(=O)c(Cc3ccccc3)c(C)[nH]c12 | > 40000 nM (inactive)
105 | CCCN(Cc1ccc(OC)c(OC)c1)Cc1cc(=O)c2c(C)cc(C)cc2[nH]1 | > 40000 nM (inactive)
106 | CCC(CC)C(=O)Nc1ccc(-c2nnc(-c3ccc(OC)cc3)o2)cc1 | 500 nM
107 | O=c1[nH]c(C=Cc2cccc(OCCOc3ccccc3)c2)nc(O)c1[N+](=O)[O-] | 10000 nM
